Earlier results, collected in US12599665B2, “Gene fusions for control of genetically modified cells” (A2 Biotherapeutics, Inc., priority 2020, dated 2026).

Tests used:
Vitamin D receptor [1] = biological target: T1, Vitamin D receptor (Gallus gallus, UniProt O42392); details: antagonist, Table 2; Chicken; cited from earlier work
T1 sequence (O42392 1-451): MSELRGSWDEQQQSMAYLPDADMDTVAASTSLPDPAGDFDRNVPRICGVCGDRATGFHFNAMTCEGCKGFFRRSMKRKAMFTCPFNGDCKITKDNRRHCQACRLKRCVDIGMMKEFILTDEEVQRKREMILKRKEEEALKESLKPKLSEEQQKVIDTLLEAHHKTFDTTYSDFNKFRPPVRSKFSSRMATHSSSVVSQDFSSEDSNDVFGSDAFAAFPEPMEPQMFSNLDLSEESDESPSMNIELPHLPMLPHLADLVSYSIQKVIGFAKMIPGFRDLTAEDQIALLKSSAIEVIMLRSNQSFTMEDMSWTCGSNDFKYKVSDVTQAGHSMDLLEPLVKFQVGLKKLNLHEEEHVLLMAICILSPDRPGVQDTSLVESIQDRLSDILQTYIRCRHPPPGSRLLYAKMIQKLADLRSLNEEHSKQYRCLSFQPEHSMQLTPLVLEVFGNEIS

[2] = biological target: Estrogen receptor-β (NR3A2) (Homo sapiens, UniProt Q92731); details: antagonist, Table 2; cited from earlier work
[3] = biological target: T2, Peroxisome proliferator-activated receptor-α (NR1C1) (Homo sapiens, UniProt Q07869); details: antagonist, Table 2; cited from earlier work
T2 sequence (Q07869 1-468): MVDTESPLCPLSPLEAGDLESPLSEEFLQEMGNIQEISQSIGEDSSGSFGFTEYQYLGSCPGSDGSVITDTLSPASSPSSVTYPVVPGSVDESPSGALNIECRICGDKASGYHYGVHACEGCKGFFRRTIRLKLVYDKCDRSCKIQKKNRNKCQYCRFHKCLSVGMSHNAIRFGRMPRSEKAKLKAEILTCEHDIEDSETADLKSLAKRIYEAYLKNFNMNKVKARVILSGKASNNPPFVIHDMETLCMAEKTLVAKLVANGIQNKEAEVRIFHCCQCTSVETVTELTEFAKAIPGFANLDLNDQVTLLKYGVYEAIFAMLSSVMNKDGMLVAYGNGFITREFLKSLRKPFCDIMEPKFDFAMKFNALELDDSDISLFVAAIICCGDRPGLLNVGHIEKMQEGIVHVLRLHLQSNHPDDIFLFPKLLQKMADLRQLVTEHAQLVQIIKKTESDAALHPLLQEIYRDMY

Rev-Erb-α (NR1D1) = biological target: T3, Rev-Erb-α (NR1D1) (Homo sapiens, UniProt P20393); details: antagonist, Table 2; cited from earlier work
T3 sequence (P20393 1-614): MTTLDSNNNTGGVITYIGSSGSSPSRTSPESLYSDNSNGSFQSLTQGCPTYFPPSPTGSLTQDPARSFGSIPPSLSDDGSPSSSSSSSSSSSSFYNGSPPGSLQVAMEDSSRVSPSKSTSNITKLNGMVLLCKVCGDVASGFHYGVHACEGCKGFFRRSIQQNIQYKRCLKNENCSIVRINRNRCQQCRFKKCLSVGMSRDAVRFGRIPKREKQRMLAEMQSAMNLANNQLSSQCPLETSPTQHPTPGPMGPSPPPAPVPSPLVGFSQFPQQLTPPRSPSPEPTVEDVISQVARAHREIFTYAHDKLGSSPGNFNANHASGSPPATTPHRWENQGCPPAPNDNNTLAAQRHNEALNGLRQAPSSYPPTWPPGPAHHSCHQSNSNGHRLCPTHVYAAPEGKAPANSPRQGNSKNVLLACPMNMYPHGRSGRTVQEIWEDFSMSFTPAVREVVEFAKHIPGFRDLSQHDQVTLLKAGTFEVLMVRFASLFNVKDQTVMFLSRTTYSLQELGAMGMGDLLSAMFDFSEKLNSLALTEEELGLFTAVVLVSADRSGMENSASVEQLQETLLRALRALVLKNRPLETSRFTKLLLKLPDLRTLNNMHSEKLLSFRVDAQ

[4] = biological target: T4, Glucocorticoid receptor (NR3C1) (Homo sapiens, UniProt P04150); details: antagonist, Table 2; cited from earlier work
T4 sequence (P04150 1-777): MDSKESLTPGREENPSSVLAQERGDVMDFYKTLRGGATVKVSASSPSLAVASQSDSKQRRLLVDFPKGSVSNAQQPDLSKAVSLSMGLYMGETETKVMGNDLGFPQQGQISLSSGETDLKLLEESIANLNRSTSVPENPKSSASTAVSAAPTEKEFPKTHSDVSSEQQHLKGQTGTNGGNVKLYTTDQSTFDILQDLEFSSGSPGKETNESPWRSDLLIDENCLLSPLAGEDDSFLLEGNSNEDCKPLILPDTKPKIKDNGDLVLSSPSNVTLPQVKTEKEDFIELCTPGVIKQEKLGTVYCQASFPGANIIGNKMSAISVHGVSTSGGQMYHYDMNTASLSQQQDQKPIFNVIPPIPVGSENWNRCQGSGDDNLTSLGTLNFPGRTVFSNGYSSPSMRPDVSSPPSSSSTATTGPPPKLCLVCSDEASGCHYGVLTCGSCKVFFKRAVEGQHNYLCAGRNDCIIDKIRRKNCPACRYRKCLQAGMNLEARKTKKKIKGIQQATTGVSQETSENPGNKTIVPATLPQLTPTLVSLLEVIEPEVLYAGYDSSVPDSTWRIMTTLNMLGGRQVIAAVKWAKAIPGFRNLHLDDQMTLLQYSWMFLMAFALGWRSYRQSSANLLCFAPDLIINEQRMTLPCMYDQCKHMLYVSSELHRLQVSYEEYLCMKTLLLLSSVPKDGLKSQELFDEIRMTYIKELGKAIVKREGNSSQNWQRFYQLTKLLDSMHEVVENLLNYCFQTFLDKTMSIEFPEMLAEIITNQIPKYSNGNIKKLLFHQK

[5] = biological target: T5, Mineralocorticoid receptor (NR3C2) (Homo sapiens, UniProt P08235); details: antagonist, Table 2; cited from earlier work
T5 sequence (P08235 1-984): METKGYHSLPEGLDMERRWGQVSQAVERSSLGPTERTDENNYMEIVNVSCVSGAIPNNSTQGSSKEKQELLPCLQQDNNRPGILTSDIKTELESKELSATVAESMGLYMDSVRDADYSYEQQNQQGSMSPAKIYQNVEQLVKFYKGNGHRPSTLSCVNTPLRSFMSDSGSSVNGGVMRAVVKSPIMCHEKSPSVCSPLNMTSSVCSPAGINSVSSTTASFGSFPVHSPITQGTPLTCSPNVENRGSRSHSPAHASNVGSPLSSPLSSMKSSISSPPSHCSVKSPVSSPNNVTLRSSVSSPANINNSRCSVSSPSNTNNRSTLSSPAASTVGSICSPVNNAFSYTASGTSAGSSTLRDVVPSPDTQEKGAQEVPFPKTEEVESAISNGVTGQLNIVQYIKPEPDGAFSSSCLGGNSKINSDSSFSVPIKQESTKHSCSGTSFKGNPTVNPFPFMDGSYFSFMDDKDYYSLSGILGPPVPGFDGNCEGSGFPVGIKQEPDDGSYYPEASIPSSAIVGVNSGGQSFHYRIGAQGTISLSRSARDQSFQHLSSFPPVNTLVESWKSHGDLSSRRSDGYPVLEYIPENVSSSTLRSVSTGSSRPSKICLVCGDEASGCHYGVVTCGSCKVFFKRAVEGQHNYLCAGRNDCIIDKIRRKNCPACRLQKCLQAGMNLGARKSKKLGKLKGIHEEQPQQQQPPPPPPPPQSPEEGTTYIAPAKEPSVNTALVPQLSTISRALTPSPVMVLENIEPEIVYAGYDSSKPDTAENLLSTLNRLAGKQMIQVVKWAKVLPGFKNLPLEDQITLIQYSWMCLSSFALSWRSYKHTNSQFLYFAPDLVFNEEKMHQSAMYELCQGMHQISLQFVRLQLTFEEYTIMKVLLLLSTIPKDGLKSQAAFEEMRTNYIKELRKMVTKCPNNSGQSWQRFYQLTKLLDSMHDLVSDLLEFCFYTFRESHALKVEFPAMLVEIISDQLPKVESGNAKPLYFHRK

[6] = biological target: T6, Peroxisome proliferator-activated receptor-γ (NR1C3) (Homo sapiens, UniProt P37231); details: antagonist, Table 2, cited from earlier work
T6 sequence (P37231 1-505): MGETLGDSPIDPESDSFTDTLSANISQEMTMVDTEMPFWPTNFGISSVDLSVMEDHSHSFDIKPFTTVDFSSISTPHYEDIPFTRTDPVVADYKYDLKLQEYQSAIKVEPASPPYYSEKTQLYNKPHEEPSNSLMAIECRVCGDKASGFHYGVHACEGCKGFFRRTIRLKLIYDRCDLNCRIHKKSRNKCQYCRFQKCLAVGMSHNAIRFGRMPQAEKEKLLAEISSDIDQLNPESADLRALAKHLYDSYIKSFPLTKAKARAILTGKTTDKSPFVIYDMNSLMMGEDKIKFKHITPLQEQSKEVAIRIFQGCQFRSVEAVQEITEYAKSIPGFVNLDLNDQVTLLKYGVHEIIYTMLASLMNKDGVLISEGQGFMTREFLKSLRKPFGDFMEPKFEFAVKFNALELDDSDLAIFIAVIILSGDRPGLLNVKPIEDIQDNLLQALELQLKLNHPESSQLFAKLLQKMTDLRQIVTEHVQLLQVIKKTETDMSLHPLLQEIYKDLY

Vitamin D receptor [7] = biological target: T7, Vitamin D receptor (Homo sapiens, UniProt P11473); details: antagonist, Table 2; cited from earlier work
T7 sequence (P11473 1-427): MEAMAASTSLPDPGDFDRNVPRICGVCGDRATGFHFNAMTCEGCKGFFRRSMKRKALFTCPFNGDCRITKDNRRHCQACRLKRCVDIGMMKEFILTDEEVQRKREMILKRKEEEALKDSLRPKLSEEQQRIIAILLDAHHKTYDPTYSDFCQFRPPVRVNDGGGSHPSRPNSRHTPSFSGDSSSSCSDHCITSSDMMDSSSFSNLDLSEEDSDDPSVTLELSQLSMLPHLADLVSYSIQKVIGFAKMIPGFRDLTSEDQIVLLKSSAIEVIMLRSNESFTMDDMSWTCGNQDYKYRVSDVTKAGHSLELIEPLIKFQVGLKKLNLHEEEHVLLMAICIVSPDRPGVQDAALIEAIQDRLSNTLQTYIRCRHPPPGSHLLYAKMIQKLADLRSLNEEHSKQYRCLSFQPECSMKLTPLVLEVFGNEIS

[8] = biological target: T8, ER(T2) (human ER LBD G400V/M543A/L544A) (Homo sapiens, UniProt P03372, G400V/L544A/M543A); details: ER(T2) vs ER(T); cited from earlier work
T8 construct: a human ER LBD and comprising point mutations G400V/M543A/L544A, which is termed ER(T2)
T8 sequence (P03372 311-547 G400V/M543A/L544A limits assumed): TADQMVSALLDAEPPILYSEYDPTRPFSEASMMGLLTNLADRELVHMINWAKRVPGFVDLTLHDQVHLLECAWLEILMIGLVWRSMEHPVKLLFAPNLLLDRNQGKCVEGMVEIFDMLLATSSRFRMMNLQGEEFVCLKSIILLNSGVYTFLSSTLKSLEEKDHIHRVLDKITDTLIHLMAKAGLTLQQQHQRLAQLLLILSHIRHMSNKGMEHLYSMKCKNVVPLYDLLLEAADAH

Sequence of Estrogen receptor-β (NR3A2) (Q92731 whole entry): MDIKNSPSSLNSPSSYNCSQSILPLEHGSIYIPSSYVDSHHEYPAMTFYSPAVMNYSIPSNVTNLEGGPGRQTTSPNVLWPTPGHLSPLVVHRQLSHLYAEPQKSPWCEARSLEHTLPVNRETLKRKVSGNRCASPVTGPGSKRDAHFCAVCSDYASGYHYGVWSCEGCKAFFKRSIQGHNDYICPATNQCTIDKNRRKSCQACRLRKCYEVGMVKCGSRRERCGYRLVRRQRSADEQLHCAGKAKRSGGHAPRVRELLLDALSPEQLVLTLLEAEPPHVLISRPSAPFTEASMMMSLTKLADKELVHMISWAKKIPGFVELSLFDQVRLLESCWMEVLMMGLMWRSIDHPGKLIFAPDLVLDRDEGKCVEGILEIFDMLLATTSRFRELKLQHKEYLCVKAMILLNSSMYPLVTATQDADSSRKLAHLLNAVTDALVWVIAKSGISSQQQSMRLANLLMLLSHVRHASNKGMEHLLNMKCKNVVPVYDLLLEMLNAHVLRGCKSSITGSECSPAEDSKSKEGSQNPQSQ

Compound: C=C1C[C@H](C[C@@H](C)[C@H]2CC[C@H]3/C(=C/C=C4/C[C@@H](O)C[C@H](O)C4=C)CCC[C@]23C)OC1=O [TEI-9647]
- pIC50 (Vitamin D receptor [1]): (pIC50 8.2)

Compound: CC[C@@H]1Cc2cc(O)ccc2C2=C1c1ccc(O)cc1C[C@H]2CC [R,R-THC]
- pKi [2]: 8.4) (CAS

Compound: CCC(=O)NC[C@H](Cc1ccc(OCCc2nc(-c3ccccc3)oc2C)cc1)N/C(C)=C\C(=O)c1ccc(C(F)(F)F)cc1 [GW6471]
- pIC50 [3]: (pIC50 6.6)

Compound: CCOC(=O)C1Cc2ccccc2CN1C(=O)c1ccc(SC)s1 (stereo not drawn) [SR8278]
- pIC50 (Rev-Erb-α (NR1D1)): 6.5) (CAS

Compound: Oc1ccc(-c2c(-c3ccccc3)nn3c(C(F)(F)F)cc(C(F)(F)F)nc23)cc1 [PHTPP]
- pKi [2]: (pKi 6.9) (CAS

Compound: CN(C)c1ccc([C@H]2C[C@]3(C)[C@@H](CC[C@]3(O)CCCO)[C@@H]3CCC4=CC(=O)CCC4=C32)cc1 [onapristone]
- pIC50 [4]: (pIC50 7.6),
- pIC50 [5]: (pIC50 6.3),

Compound: COC(=O)[C@]12CCC(C)(C)C[C@H]1[C@H]1C(=O)C=C3[C@@]4(C)C=C(C#N)C(=O)C(C)(C)[C@@H]4CC[C@@]3(C)[C@]1(C)CC2 [CDDO-Me, Bardoxolone methyl]
- pKi [6]: 6.9)

Compound: CCOc1ncc(C)c2c1[C@H](c1ccc(C#N)cc1OC)C(C(N)=O)=C(C)N2 [finerenone]
- pIC50 [5]: (pIC50 7.7),

Compound: C=C1/C(=C\C=C2/CCC[C@]3(C)[C@@H]([C@H](C)/C=C/[C@@H](O)C4(C(=O)OCCCC)CC4)CC[C@@H]23)C[C@@H](O)C[C@@H]1O [ZK159222]
- pIC50 (Vitamin D receptor [7]): (pIC50 7.5)

Compound: 4-hydroxytamoxifen [4-OH-Tamoxifen]
- sensitivity of ER(T2) to 4-OH-Tamoxifen relative to the ER(T) mutant [8]: roughly 10 fold

Compound: O=C(Nc1ccccc1)c1cc([N+](=O)[O-])ccc1Cl [GW9662]
- pIC50 ([6]; Irreversible inhibition): (pIC50 8.1)
